Reference: ChEMBL document CHEMBL5137046, “Discovery of novel 2,3-dihydro-1H-inden-1-ones as dual PDE4/AChE inhibitors with more potency against neuroinflammation for the treatment of Alzheimer's disease” (Eur J Med Chem, 2022)
pIC50: −log10 of the molar value.

Experiments:
[1] = target: Acetylcholinesterase (Electrophorus electricus, UniProt O42275); assay: Inhibition of electric eel AChE using acetylthiocholine iodide as substrate preincubated with enzyme for 20 mins followed by substrate addition and measured after 10 mins by Ellman's method
Acetylcholinesterase, sequence (O42275 whole entry): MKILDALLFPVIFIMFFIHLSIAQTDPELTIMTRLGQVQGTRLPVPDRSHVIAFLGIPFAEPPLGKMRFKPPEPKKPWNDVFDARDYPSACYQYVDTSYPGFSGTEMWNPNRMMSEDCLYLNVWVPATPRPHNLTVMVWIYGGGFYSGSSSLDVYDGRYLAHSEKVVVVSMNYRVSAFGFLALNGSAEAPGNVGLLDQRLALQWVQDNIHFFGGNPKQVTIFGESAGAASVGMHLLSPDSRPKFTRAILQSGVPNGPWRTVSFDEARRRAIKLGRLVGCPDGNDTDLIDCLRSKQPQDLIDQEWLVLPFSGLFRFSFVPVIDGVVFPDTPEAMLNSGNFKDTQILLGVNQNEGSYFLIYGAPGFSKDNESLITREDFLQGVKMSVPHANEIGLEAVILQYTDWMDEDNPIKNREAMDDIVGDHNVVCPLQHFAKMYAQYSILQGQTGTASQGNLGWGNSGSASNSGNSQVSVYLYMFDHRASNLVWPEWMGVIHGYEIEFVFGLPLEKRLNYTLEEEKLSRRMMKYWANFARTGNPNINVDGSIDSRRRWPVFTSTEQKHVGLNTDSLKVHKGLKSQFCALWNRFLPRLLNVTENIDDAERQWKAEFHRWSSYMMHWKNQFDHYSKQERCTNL

[2] = target: T1, 3',5'-cyclic-AMP phosphodiesterase 4D (Homo sapiens, UniProt Q08499); assay: Inhibition of PDE4D7 (unknown origin)
T1 sequence (Q08499 whole entry): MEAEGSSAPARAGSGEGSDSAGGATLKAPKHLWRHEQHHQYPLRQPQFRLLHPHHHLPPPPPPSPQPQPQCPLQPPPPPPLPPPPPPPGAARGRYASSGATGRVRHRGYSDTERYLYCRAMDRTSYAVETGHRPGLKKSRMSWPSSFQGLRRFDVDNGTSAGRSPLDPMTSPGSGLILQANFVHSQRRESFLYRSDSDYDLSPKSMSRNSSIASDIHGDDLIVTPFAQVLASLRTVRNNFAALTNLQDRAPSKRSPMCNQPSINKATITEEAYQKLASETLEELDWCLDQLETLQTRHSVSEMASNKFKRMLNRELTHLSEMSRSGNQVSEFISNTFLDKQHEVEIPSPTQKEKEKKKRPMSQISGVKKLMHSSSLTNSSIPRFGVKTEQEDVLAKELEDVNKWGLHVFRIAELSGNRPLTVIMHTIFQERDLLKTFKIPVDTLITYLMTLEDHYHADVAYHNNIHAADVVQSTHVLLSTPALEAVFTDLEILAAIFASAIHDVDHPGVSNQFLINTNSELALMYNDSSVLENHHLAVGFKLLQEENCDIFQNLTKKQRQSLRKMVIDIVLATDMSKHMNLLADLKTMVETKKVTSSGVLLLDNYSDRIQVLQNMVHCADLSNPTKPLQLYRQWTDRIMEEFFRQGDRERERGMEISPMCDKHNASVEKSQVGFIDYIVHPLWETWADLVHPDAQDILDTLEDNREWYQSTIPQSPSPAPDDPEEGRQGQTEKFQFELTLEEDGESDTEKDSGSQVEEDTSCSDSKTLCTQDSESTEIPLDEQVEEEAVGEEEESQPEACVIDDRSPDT

[3] = target: Acetylcholinesterase (Electrophorus electricus) (UniProt O42275); assay: Inhibition of electric eel AChE using acetylthiocholine iodide as substrate at 10 uM preincubated with enzyme for 20 mins followed by substrate addition and measured after 10 mins by Ellman's method; conditions: time 30.0 min
Acetylcholinesterase (Electrophorus electricus), sequence (O42275 24-633 limits assumed): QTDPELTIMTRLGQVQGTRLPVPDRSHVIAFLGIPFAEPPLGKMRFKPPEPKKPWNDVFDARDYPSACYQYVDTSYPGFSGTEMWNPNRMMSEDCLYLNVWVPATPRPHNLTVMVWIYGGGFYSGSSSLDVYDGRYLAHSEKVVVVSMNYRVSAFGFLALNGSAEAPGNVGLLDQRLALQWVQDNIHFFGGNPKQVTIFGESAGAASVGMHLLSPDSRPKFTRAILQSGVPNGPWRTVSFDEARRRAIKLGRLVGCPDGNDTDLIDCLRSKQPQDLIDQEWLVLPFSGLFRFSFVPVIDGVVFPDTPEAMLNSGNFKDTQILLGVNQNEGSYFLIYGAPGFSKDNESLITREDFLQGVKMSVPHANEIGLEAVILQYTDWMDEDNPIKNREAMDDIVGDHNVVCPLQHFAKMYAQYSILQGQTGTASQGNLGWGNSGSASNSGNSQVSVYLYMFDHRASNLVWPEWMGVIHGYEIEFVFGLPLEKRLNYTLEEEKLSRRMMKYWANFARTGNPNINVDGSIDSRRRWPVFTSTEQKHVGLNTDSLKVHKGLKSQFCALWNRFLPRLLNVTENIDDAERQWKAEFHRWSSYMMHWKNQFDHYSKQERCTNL

[4] = target: T1, 3',5'-cyclic-AMP phosphodiesterase 4D; assay: Inhibition of PDE4D7 (unknown origin) at 10 uM

Row | Compound | pIC50 [1] | pIC50 [2] | inhibition [3] | inhibition [4]
1 | COc1cc2c(cc1OC1CCCC1)C(=O)/C(=C/c1ccncc1)C2 | 4.94 | 5.51 | 51% | –
2 | COc1ccc(CC2Cc3cc(OC)c(OCCN4CCCCC4)cc3C2=O)cc1 (centres undefined) | 6.09 | – | – | < 10%
3 | COc1cc2c(cc1OC1CCCC1)CC(Cc1ccncc1)C2=O (centres undefined) | 4.52 | 5.28 | 27% | –
4 | COc1cc2c(cc1OC1CCCC1)CC(CC1CCN(Cc3ccccc3)CC1)C2=O (centres undefined) | 6.68 | – | – | < 10%
5 | COc1cc2c(cc1OC1CCCC1)C(=O)/C(=C/c1cccnc1)C2 | 5.08 | 5.39 | 56% | –
6 | COc1cc2c(cc1OC1CCCC1)C(=O)C(Cc1cccnc1)C2 (centres undefined) | – | 4.64 | 26% | 34%
7 | COc1cc2c(cc1OCC(C)C)C(=O)C(CC1CCNCC1)C2 (centres undefined) | – | – | 12% | < 10%
8 | COc1cc2c(cc1OCCN1CCCC1)C(=O)C(Cc1ccncc1)C2 (centres undefined) | 5.97 | – | – | < 10%
9 | COc1cc2c(cc1OCC(C)C)CC(CC1CCN(Cc3ccccc3)CC1)C2=O (centres undefined) | 6.68 | – | – | < 10%
10 | COc1cc2c(cc1OC1CCCC1)C(=O)C(Cc1ccncc1)C2 (centres undefined) | 4.25 | 5.47 | 15% | –
11 | COc1cc2c(cc1OC1CCCC1)C(=O)C(CC1CCN(Cc3ccccc3)CC1)C2 (centres undefined) | 7.24 | – | – | < 10%
12 | COc1cc2c(cc1OCCN1CCCCC1)C(=O)C(Cc1ccncc1)C2 (centres undefined) | 7.15 | 4.79 | – | –
13 | COc1cc2c(cc1OCC1CC1)C(=O)C(Cc1ccncc1)C2 (centres undefined) | 4.44 | 5.20 | 25% | –
14 | COc1cc2c(cc1OCC(C)C)CC(Cc1ccncc1)C2=O (centres undefined) | 4.19 | 5.38 | 15% | –
15 | COc1cc2c(cc1OC1CCCC1)C(=O)/C(=C/c1ccccn1)C2 | – | – | 39% | 11%
16 | COc1cc2c(cc1OC1CCCC1)CC(CC1CCNCC1)C2=O (centres undefined) | – | – | 19% | < 10%
